This is an account of results in patent US20120277161A1, “INHIBITION OF MULTIPLE CELL ACTIVATION PATHWAYS” (INTER-K PTY LIMITED, priority 2009, published 2012).

The test system of assay [1] is HT29 human colorectal adenocarcinoma tumour. Briefly: Inhibition of HT29 tumour growth in a mouse model. In kind it is in vivo, Mouse (Mus musculus) BALB/c nu/nu. The settings on record: for Tumour volume Delta avg: change from day 0; for dT/dC [%]: versus vehicle. The method, then:
HT29 human colorectal adenocarcinoma cells were cultured in RPMI 1640 cell culture medium supplemented with 10% v/v heat inactivated FCS and 50 IU/mL penicillin-streptomycin. The cells were harvested by trypsinisation, washed twice in HBSS and counted. The cells were then resuspended in HBSS to a final concentration of 2×10^7 cells/mL.
Prior to inoculation the skin on the injection site (dorsal right flank) was swabbed with alcohol. The needle was introduced through the skin into the subcutaneous space just below the animal's right shoulder, and 100 μL of cells (2×10^6 cells) were discharged. The treatment of mice began nine days after HT29 cell inoculation, the average tumour volume was 68 mm^3 (average variability of 6.1%).
Body weight and tumour dimensions (length and diameter) were measured for all animals on the first day of treatment (day 0) and then three times per week, including the termination day of the study (Day 24).
Mice were randomized, based on body weight, into two groups of ten mice on Day 0 of the study. The peptide dendrimer Dend 10-10(4) presenting 10 monomer units of the peptide RSKAKNPLYR (SEQ ID No. 6) (see Example 2) was used in this study. The vehicle control (phosphate buffered saline (PBS)) and Dend 10-10(4) dendrimer (20 mg/kg) were each administered by intra-tumoural injection once daily for five consecutive days, beginning on Day 0.
The vehicle control and Dend 10-10(4) dendrimer were administered at a dosing volume of 4.762 mL/kg (100 μL) based on a 21 g mouse. Each animal's body weight was measured immediately prior to dosing. The volume of dosing solution administered to each mouse was calculated and adjusted based on individual body weight.
Tumours were excised from all mice post mortem and weighed. Tumour volume was calculated using the equation:
V (mm^3)=length×diameter^2×π/6
ΔT/ΔC (%) was calculated using the following equation:
ΔT/ΔC %=(ΔvolumeTreatment/ΔVolumeControl)×100
where Δ=change in volume from day 0 to the final measurement day or nominated day of interest.

Assay [2] concerns HT-29 human colon cancer cells. Kind of assay: Apoptosis assay (FITC Annexin V / PI, FACS). The settings on record: 10 μM, 4 hours; FIG. 11. In kind it is cell-based. The method, then: The cells were harvested by trypsinisation, washed twice in HBSS and counted counted using Trypan Blue staining. The cells were then re-suspended in the appropriate culture medium to a concentration of 1×10^6 cells/mL. […] The cells were allowed to attach to the plate for 1 h. […] Cells were then harvested by trypsinisation, washed twice in cold phosphate buffered saline (PBS) and then resuspended in 1× binding buffer. 100 μL of the cell suspensions containing 1×10^5 cells were transferred to a 5 mL plastic tube. […] Three controls were also analysed: unstained cells, cells stained only with Annexin V and cells stained only with PI. The data was presented as the percentage of cells being either Annexin V positive only (excluding PI positive cells), PI positive (total) or Annexin V and PI positive (double stain).

The next assay addresses human Yes (Homo sapiens, UniProt P07947). Briefly: Yes kinase activity assay. In kind it is biochemical. As to conditions: 20 μM. On the procedure: In a final reaction volume of 25 μl, human Yes is incubated with the RSKAKNPLYR peptide (SEQ ID No: 6) in 8 mM MOPS buffer pH 7.0, 0.2 mM EDTA, 0.1 mg/ml poly(Glu,Tyr) 4:1, 10 mM Mg acetate and [γ-33P-ATP] (specific activity approx. 500 cpm/pmol). The reaction is initiated by the addition of the MgATP mix, incubated for 40 minutes at room temperature prior to being stopped and kinase activity assessed by scintillation counting again as per the protocol described for c-Src in Example 1.1.

The target of the next assay is human Lyn (Homo sapiens, UniProt P07948). Briefly: Lyn kinase activity assay. As to conditions: 20 μM. In kind it is biochemical. On the procedure: In a final reaction volume of 25 μl, human Lyn is incubated with the RSKAKNPLYR peptide (SEQ ID No: 6) in 50 mM Tris buffer pH 7.5, 0.1 mM EGTA, 0.1 mM Na3VO4, 1% mercaptoethanol, 0.1 mg/ml poly(Glu,Tyr) 4:1, 10 mM Mg acetate and [γ-33P-ATP] (specific activity approx. 500 cpm/pmol). The reaction was initiated by the addition of the MgATP mix, incubated for 40 minutes at room temperature prior to being stopped and kinase activity assessed by scintillation counting as per the protocol described for c-Src described in Example 1.1.

Another assay deals with HL60 leukemic cells. Briefly: MTT proliferation, HL60 cells. Type of assay: cell-based. As to conditions: MTT assay, data not shown; read-out: IC50 inhibition of proliferation of HL60 leukemic cells.

Chain of human Yes (P07947 whole entry): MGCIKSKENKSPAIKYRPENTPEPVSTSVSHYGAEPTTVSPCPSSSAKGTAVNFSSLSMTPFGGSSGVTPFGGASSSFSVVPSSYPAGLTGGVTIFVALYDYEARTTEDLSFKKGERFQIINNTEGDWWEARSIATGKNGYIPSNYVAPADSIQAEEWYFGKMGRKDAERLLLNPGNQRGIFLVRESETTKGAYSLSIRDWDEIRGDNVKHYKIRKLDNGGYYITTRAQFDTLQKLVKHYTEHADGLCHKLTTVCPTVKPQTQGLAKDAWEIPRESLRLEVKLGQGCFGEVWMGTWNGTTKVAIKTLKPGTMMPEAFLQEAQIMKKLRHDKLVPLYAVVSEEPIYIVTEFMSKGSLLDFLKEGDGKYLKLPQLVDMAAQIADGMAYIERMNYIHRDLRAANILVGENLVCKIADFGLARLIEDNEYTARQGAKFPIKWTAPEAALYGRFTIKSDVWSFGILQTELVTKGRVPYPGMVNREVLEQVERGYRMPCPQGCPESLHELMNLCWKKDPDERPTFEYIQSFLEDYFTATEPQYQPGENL
Chain of human Lyn (P07948 whole entry): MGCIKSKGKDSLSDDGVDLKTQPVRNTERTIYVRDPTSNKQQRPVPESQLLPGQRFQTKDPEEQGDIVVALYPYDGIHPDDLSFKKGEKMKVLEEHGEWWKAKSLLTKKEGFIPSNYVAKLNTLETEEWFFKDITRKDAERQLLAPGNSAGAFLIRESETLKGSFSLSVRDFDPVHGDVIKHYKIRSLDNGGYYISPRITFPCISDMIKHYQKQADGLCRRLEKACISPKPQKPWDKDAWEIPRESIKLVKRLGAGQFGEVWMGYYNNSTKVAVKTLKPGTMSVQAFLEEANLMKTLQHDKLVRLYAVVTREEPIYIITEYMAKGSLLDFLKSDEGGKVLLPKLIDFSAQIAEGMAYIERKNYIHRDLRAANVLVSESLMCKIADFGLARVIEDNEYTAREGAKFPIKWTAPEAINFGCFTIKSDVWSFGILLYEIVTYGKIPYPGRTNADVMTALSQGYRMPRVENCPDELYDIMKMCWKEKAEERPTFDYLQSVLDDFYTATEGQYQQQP

With `CC(C)C[C@H](NC(=O)[C@@H]1CCCN1C(=O)[C@H](CC(N)=O)NC(=O)[C@H](CCCCN)NC(=O)[C@H](C)NC(=O)[C@H](CCCCN)NC(=O)[C@H](CO)NC(=O)[C@@H](N)CCCNC(=N)N)C(=O)N[C@@H](Cc1ccc(O)cc1)C(=O)N[C@@H](CCCNC(=N)N)C(=O)NCCCC[C@H](NC(=O)[C@H](CCCCNC(=O)[C@H](CCCCNC(=O)[C@H](CCCNC(=N)N)NC(=O)[C@H](Cc1ccc(O)cc1)NC(=O)[C@H](CC(C)C)NC(=O)[C@@H]1CCCN1C(=O)[C@H](CC(N)=O)NC(=O)[C@H](CCCCN)NC(=O)[C@H](C)NC(=O)[C@H](CCCCN)NC(=O)[C@H](CO)NC(=O)[C@@H](N)CCCNC(=N)N)NC(=O)[C@H](CCCNC(=N)N)NC(=O)[C@H](Cc1ccc(O)cc1)NC(=O)[C@H](CC(C)C)NC(=O)[C@@H]1CCCN1C(=O)[C@H](CC(N)=O)NC(=O)[C@H](CCCCN)NC(=O)[C@H](C)NC(=O)[C@H](CCCCN)NC(=O)[C@H](CO)NC(=O)[C@@H](N)CCCNC(=N)N)NC(=O)[C@H](CCCCNC(=O)[C@H](CCCNC(=N)N)NC(=O)[C@H](Cc1ccc(O)cc1)NC(=O)[C@H](CC(C)C)NC(=O)[C@@H]1CCCN1C(=O)[C@H](CC(N)=O)NC(=O)[C@H](CCCCN)NC(=O)[C@H](C)NC(=O)[C@H](CCCCN)NC(=O)[C@H](CO)NC(=O)[C@@H](N)CCCNC(=N)N)NC(=O)[C@H](CCCNC(=N)N)NC(=O)[C@H](Cc1ccc(O)cc1)NC(=O)[C@H](CC(C)C)NC(=O)[C@@H]1CCCN1C(=O)[C@H](CC(N)=O)NC(=O)[C@H](CCCCN)NC(=O)[C@H](C)NC(=O)[C@H](CCCCN)NC(=O)[C@H](CO)NC(=O)[C@@H](N)CCCNC(=N)N)C(=O)NCCCC[C@H](NC(=O)[C@H](CCCCNC(=O)[C@H](CCCNC(=N)N)NC(=O)[C@H](Cc1ccc(O)cc1)NC(=O)[C@H](CC(C)C)NC(=O)[C@@H]1CCCN1C(=O)[C@H](CC(N)=O)NC(=O)[C@H](CCCCN)NC(=O)[C@H](C)NC(=O)[C@H](CCCCN)NC(=O)[C@H](CO)NC(=O)[C@@H](N)CCCNC(=N)N)NC(=O)[C@H](CCCCNC(=O)[C@H](CCCCNC(=O)[C@H](CCCNC(=N)N)NC(=O)[C@H](Cc1ccc(O)cc1)NC(=O)[C@H](CC(C)C)NC(=O)[C@@H]1CCCN1C(=O)[C@H](CC(N)=O)NC(=O)[C@H](CCCCN)NC(=O)[C@H](C)NC(=O)[C@H](CCCCN)NC(=O)[C@H](CO)NC(=O)[C@@H](N)CCCNC(=N)N)NC(=O)[C@H](CCCNC(=N)N)NC(=O)[C@H](Cc1ccc(O)cc1)NC(=O)[C@H](CC(C)C)NC(=O)[C@@H]1CCCN1C(=O)[C@H](CC(N)=O)NC(=O)[C@H](CCCCN)NC(=O)[C@H](C)NC(=O)[C@H](CCCCN)NC(=O)[C@H](CO)NC(=O)[C@@H](N)CCCNC(=N)N)NC(=O)[C@H](CCCCNC(=O)[C@H](CCCNC(=N)N)NC(=O)[C@H](Cc1ccc(O)cc1)NC(=O)[C@H](CC(C)C)NC(=O)[C@@H]1CCCN1C(=O)[C@H](CC(N)=O)NC(=O)[C@H](CCCCN)NC(=O)[C@H](C)NC(=O)[C@H](CCCCN)NC(=O)[C@H](CO)NC(=O)[C@@H](N)CCCNC(=N)N)NC(=O)[C@H](CCCNC(=N)N)NC(=O)[C@H](Cc1ccc(O)cc1)NC(=O)[C@H](CC(C)C)NC(=O)[C@@H]1CCCN1C(=O)[C@H](CC(N)=O)NC(=O)[C@H](CCCCN)NC(=O)[C@H](C)NC(=O)[C@H](CCCCN)NC(=O)[C@H](CO)NC(=O)[C@@H](N)CCCNC(=N)N)C(=O)NCCC(N)=O` [Dend 10-10(4)], the “Tumour volume Average” value in assay [1] (20 mg/kg intra-tumoural once daily for five days, Day 0) is 68.0 mm^3; in assay [1] (20 mg/kg intra-tumoural once daily for five days, Day 2) it was 136.6 mm^3; in assay [1] (20 mg/kg intra-tumoural once daily for five days, Day 4), 211.9 mm^3; in assay [1] (20 mg/kg intra-tumoural once daily for five days, Day 7) it was 248.6 mm^3; in assay [1] (20 mg/kg intra-tumoural once daily for five days, Day 11), 300.9 mm^3; in assay [1] (20 mg/kg intra-tumoural once daily for five days, Day 14), 323.9 mm^3. The “Tumour volume Average” value in assay [1] (20 mg/kg intra-tumoural once daily for five days, Day 16) worked out at 391.0 mm^3; in assay [1] (20 mg/kg intra-tumoural once daily for five days, Day 18) it was 476.9 mm^3; in assay [1] (20 mg/kg intra-tumoural once daily for five days, Day 21), 601.5 mm^3; in assay [1] (20 mg/kg intra-tumoural once daily for five days, Day 24), 702.1 mm^3. Further, the “average tumour weight at the end of the study” value in assay [1] (20 mg/kg intra-tumoural once daily for five days, Day 24, control 0.962 g) was 0.437 g. In addition, the “tumour growth compared to the vehicle only control” value in assay [1] (FIG. 16) is “markedly inhibited”. The “Tumour volume Delta avg” value came to 0.0 mm^3 in assay [1] (Day 0); 68.6 mm^3 in assay [1] (Day 2); 144.0 mm^3 in assay [1] (Day 4); 180.6 mm^3 in assay [1] (Day 7); 232.9 mm^3 in assay [1] (Day 11); 255.9 mm^3 in assay [1] (Day 14). The “Tumour volume Delta avg” value stood at 323.1 mm^3 in assay [1] (Day 16), 408.9 mm^3 in assay [1] (Day 18), 598.7 mm^3 in assay [1] (Day 21) and 710.4 mm^3 in assay [1] (Day 24). The “dT/dC [%]” value worked out at 100.0% in assay [1] (Day 0); 134.3% in assay [1] (Day 2); 102.0% in assay [1] (Day 4); 68.1% in assay [1] (Day 7); 58.0% in assay [1] (Day 11); 44.6% in assay [1] (Day 14). For the same molecule, the “dT/dC [%]” value in assay [1] (Day 16) was found to be 45.2%; in assay [1] (Day 18), 47.1%; in assay [1] (Day 21), 55.7%; in assay [1] (Day 24), 54.5%.

Regarding “Dend 10-10(4) whose RSKAKNPLYR peptides are entirely D-amino acids and pegylated with two ethylene glycol units [Dend 10-10(4)DP]”, in assay [2], the “apoptosis in HT-29 cells” value is recorded as “substantial level of apoptosis”. Moreover, the “inhibition of the activity of c-Yes relative to controls” value at human Yes amounted to 99%. Besides, the “inhibition of the activity of c-Lyn relative to controls” value against human Lyn is listed as 96%. Also, the IC50 with HL60 leukemic cells came out at 2 µM.
